The results in this text go back to ChEMBL document CHEMBL1201862, “PubChem BioAssay data set” (2004).

Structures are written as SMILES.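 Assay format: 96-well plates, 48-hour exposure. GI50 is the concentration that inhibits growth by half.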 Calls of active or inactive are those of the source. Cut-off read from the data, not from the text of the source: active = GI50 up to about 1.1 µM and inactive = higher.

Among the test systems are UACC-257; RXF 393; MDA-MB-231; OVCAR-3; UO-31; UACC-62; SK-OV-3; DU-145; M14; SF-268; OVCAR-4; HL-60; HOP-92; RPMI-8226; NCI-H460; A498; SW-620; SN12C; COLO 205; HCC 2998.
What all share (experiment): DTP human tumour cell line panel, 48 h

In the case of `C=C1C(O)C[C@H](OC(C)=O)[C@]2(C)C1C(OC(C)=O)[C@]1(C(C)(C)O)CC(O)C(C)=C1[C@@H](OC(=O)c1ccccc1)C2OC(C)=O` (stereo not given in full), the GI50 in the experiment with UACC-257, with RXF 393, in the experiment with MDA-MB-231, in the experiment on OVCAR-3, in the experiment on UO-31 and in the experiment with UACC-62 was > 10 µM (inactive) each time. Moreover, the GI50 with SK-OV-3, in the experiment on DU-145, with M14, in the experiment with SF-268, with OVCAR-4 and in the experiment with HL-60 was > 10 µM (inactive) each time. Also, the GI50 with HOP-92, in the experiment with RPMI-8226, in the experiment with NCI-H460, with A498, in the experiment on SW-620 and in the experiment with SN12C was > 10 µM (inactive) throughout. The GI50 in the experiment with COLO 205 is > 10 µM (inactive).

For `O=C1OCC2=Nc3cccc4cccc(c34)N12`, the GI50 in the experiment on UACC-257, in the experiment on RXF 393, in the experiment with MDA-MB-231, in the experiment on OVCAR-3, with UO-31 and in the experiment with UACC-62 was > 100 µM (inactive) in each case. The GI50 in the experiment with HCC 2998, in the experiment with SK-OV-3, with DU-145, in the experiment on M14, in the experiment on SF-268 and in the experiment on OVCAR-4 was > 100 µM (inactive) in each case. Besides, the GI50 is > 100 µM (inactive) with HL-60; < 0.01 µM (active) with HOP-92; > 100 µM (inactive) in the experiment with NCI-H460; > 100 µM (inactive) in the experiment with SW-620; > 100 µM (inactive) in the experiment on SN12C; > 100 µM (inactive) in the experiment with COLO 205.

Regarding `Cc1ccc(C(=O)/C=C(\O)C(=O)NC23CC4CC(CC(C4)C2)C3)cc1`, the GI50 in the experiment with UACC-257 is > 10 µM (inactive); in the experiment with RXF 393, > 10 µM (inactive); in the experiment with MDA-MB-231, 8.71 µM (inactive); with UACC-62, 9.02 µM (inactive); in the experiment with HCC 2998 it was > 10 µM (inactive); in the experiment on SK-OV-3, > 10 µM (inactive). Also, the GI50 in the experiment with DU-145 was 9.95 µM (inactive); with M14 it was > 10 µM (inactive); with SF-268, > 10 µM (inactive); in the experiment on OVCAR-4, > 10 µM (inactive); in the experiment with HL-60, 4.25 µM (inactive); in the experiment with HOP-92, > 10 µM (inactive). Moreover, the GI50 with RPMI-8226 was 8.61 µM (inactive); in the experiment with SW-620 it was > 10 µM (inactive); in the experiment on SN12C, 7.59 µM (inactive); in the experiment on COLO 205 it was > 10 µM (inactive).

Take `CC(C)(C)OC(=O)n1cc(C2CNC(=O)C23CCC(=O)N3Cc2ccccc2)c2ccccc21` (stereo not given): the GI50 in the experiment with UACC-257 is 27 µM (inactive); in the experiment on RXF 393 it was 21.9 µM (inactive); in the experiment on MDA-MB-231, 16.8 µM (inactive); in the experiment on OVCAR-3, 19.2 µM (inactive); with UO-31 it was 22.1 µM (inactive); with UACC-62, 17.5 µM (inactive). In addition, the GI50 in the experiment with SK-OV-3 was 26.2 µM (inactive); in the experiment with DU-145, 20.4 µM (inactive); with M14 it was 27.4 µM (inactive); in the experiment with SF-268, 31.6 µM (inactive); with OVCAR-4, 18.7 µM (inactive); in the experiment with HL-60 it was 28.1 µM (inactive). Also, the GI50 with HOP-92 is 10.9 µM (inactive); with RPMI-8226, 18.7 µM (inactive); with NCI-H460, 20.7 µM (inactive); in the experiment on A498, 20 µM (inactive); with SW-620, 33.5 µM (inactive); with SN12C, 16.7 µM (inactive). Further, in the experiment with COLO 205, the GI50 is 15.8 µM (inactive).

As to `Cc1c(NC(=O)c2cc([N+](=O)[O-])cc([N+](=O)[O-])c2)c(=O)n(-c2ccccc2)n1C`, the GI50 in the experiment on UACC-257 was 32.8 µM (inactive); in the experiment on RXF 393, > 100 µM (inactive); with MDA-MB-231, > 100 µM (inactive); in the experiment on OVCAR-3, 29.9 µM (inactive); with UO-31, > 100 µM (inactive); with UACC-62, > 100 µM (inactive). The GI50 was > 100 µM (inactive) in the experiment with SK-OV-3; > 100 µM (inactive) in the experiment on DU-145; > 100 µM (inactive) in the experiment with M14; > 100 µM (inactive) with SF-268; 43.9 µM (inactive) with OVCAR-4; > 100 µM (inactive) with HL-60. Also, the GI50 in the experiment with HOP-92 was 76.9 µM (inactive); in the experiment with RPMI-8226, > 100 µM (inactive); with NCI-H460, 97.7 µM (inactive); in the experiment with A498 it was > 100 µM (inactive); with SW-620, > 100 µM (inactive); in the experiment with SN12C, > 100 µM (inactive). For the same compound, the GI50 in the experiment on COLO 205 was 20.1 µM (inactive).

In the case of `BrC(c1cccc2ccccc12)c1cccc2ccccc12`, the GI50 is 19.2 µM (inactive) in the experiment on UACC-257; 13.6 µM (inactive) with RXF 393; 13.8 µM (inactive) in the experiment on MDA-MB-231; 11.9 µM (inactive) in the experiment on OVCAR-3; 26.8 µM (inactive) with UO-31; 14.6 µM (inactive) in the experiment with UACC-62. In addition, the GI50 in the experiment with DU-145 is 13.6 µM (inactive); in the experiment with M14, 17.3 µM (inactive); in the experiment on SF-268, 12.1 µM (inactive); in the experiment on OVCAR-4 it was 17 µM (inactive); in the experiment on HL-60, 20 µM (inactive); with HOP-92, 13.5 µM (inactive). Further, the GI50 with RPMI-8226 was > 100 µM (inactive); in the experiment with NCI-H460, 15.9 µM (inactive); in the experiment on A498 it was 17.6 µM (inactive); in the experiment on SW-620, 16.7 µM (inactive); in the experiment with SN12C, 14.3 µM (inactive).

Take `OCCCCCCCCCCCOc1ccc(C2OCC3(CC=CCC3)CO2)cc1` (stereo not given): the GI50 in the experiment with UACC-257 was 16.8 µM (inactive); in the experiment on MDA-MB-231 it was 16.9 µM (inactive); in the experiment with OVCAR-3, 19.1 µM (inactive); with UO-31, 17.5 µM (inactive); with UACC-62 it was 17.1 µM (inactive); in the experiment on HCC 2998, 17.9 µM (inactive). Also, the GI50 in the experiment with SK-OV-3 was 19.3 µM (inactive); in the experiment with DU-145, 16.2 µM (inactive); with M14, 11.1 µM (inactive); in the experiment on SF-268 it was 17.9 µM (inactive); in the experiment on OVCAR-4 it was 15.7 µM (inactive); in the experiment on HL-60, 7.29 µM (inactive). The GI50 in the experiment on HOP-92 was 16.9 µM (inactive); in the experiment with RPMI-8226, > 100 µM (inactive); in the experiment with NCI-H460, 16.9 µM (inactive); in the experiment with SW-620, 16 µM (inactive); in the experiment with SN12C, 15 µM (inactive); in the experiment with COLO 205 it was 22 µM (inactive).

Consider `O=C(CC(=O)N1N=C(N(c2ccccc2)c2ccccc2)CC1c1ccccc1)Nc1ccccc1` (stereo not given), for which the GI50 is > 100 µM (inactive) with UACC-257; 49.8 µM (inactive) in the experiment on RXF 393; 7.82 µM (inactive) with MDA-MB-231; > 100 µM (inactive) with OVCAR-3; > 100 µM (inactive) with UO-31; 34.4 µM (inactive) in the experiment with UACC-62. Besides, the GI50 was > 100 µM (inactive) in the experiment on HCC 2998; 80.9 µM (inactive) in the experiment with SK-OV-3; > 100 µM (inactive) with DU-145; > 100 µM (inactive) in the experiment on M14; 40.8 µM (inactive) with SF-268; > 100 µM (inactive) in the experiment on OVCAR-4. In addition, the GI50 in the experiment on HL-60, in the experiment with HOP-92, in the experiment with RPMI-8226, with NCI-H460, in the experiment on SW-620 and in the experiment on COLO 205 was > 100 µM (inactive) each time.

In the case of `NC(=O)C1=NNc2ccccc2C(=O)N1c1ccccc1`, the GI50 in the experiment with UACC-257, in the experiment on RXF 393, in the experiment on MDA-MB-231, with OVCAR-3, in the experiment on UO-31 and in the experiment on UACC-62 was > 100 µM (inactive) throughout. Further, the GI50 was > 100 µM (inactive) with SK-OV-3; > 100 µM (inactive) with DU-145; > 100 µM (inactive) in the experiment on M14; > 100 µM (inactive) in the experiment with SF-268; > 100 µM (inactive) with OVCAR-4; > 10 µM (inactive) with HOP-92. The GI50 with RPMI-8226, in the experiment with NCI-H460, with A498, in the experiment on SW-620, in the experiment on SN12C and in the experiment with COLO 205 was > 100 µM (inactive) throughout.

For the compound `Cc1nn(C(=O)c2ccc(Cl)cc2)c2c1C(c1ccc([N+](=O)[O-])cc1)SC(=N)N2` (stereo not given), the GI50 in the experiment on UACC-257, with RXF 393, in the experiment on MDA-MB-231, in the experiment on OVCAR-3, in the experiment with UACC-62 and with HCC 2998 was > 10 µM (inactive) in each case. Also, the GI50 with SK-OV-3, in the experiment on DU-145, with M14, in the experiment on SF-268, in the experiment with OVCAR-4 and with HL-60 was > 10 µM (inactive) each time. Moreover, the GI50 in the experiment with HOP-92, in the experiment with RPMI-8226, in the experiment on NCI-H460, in the experiment on SW-620, in the experiment with SN12C and in the experiment on COLO 205 was > 10 µM (inactive) each time.

Regarding `O=C1NC(=O)/C(=C\c2ccncc2)N1`, the GI50 in the experiment on UACC-257, in the experiment on MDA-MB-231, with OVCAR-3, in the experiment on UO-31, in the experiment on HCC 2998 and in the experiment with SK-OV-3 was > 100 µM (inactive) each time. In addition, the GI50 in the experiment on DU-145 is > 100 µM (inactive); in the experiment on M14, > 100 µM (inactive); in the experiment with OVCAR-4, > 100 µM (inactive); in the experiment with HL-60 it was > 10 µM (inactive); in the experiment on HOP-92 it was > 100 µM (inactive); with NCI-H460 it was > 100 µM (inactive). The GI50 with SW-620, in the experiment on SN12C and with COLO 205 was > 100 µM (inactive) throughout.
